Patent US4628047A (priority 1982, dated 1986)
≈ marks a conversion by molar mass, not a printed value. Structures can show the parent of a compound that is named as a salt. Where two headings read alike, the source gives them in different places.

Assays:
[1] = system: Colon 26 tumor cells C26 mix; assay: Antitumor enhancement effect in solid tumor cells, C26 mix; assay type: cell-based; details: on VCR, diltiazem 0 μM
[2] = system: Colon 26 tumor cells N-5; assay: Antitumor enhancement effect in solid tumor cells, colon 26 N-5; assay type: cell-based; details: on VCR, diltiazem 0 μM
[3] = system: Colon 26 tumor cells NL-33; assay: Antitumor enhancement effect in solid tumor cells, colon 26 NL-33; assay type: cell-based; details: on VCR, diltiazem 0 μM
[4] = system: P388 leukemia cells having resistance to vincristine; assay: Growth inhibition of VCR-resistant P388 leukemia cells (P388/VCR); assay type: cell-based; details: for IC50: Mus musculus; for Enhancement effect: on VCR
[5] = system: Colon 26 tumor cells N-1; assay: Antitumor enhancement effect in solid tumor cells, colon 26 N-1; assay type: cell-based; details: on VCR, diltiazem 0 μM
[6] = system: B16 melanoma cells F10; assay: Antitumor enhancement effect in solid tumor cells, B16 F10; assay type: cell-based; details: on VCR, diltiazem 0 μM
[7] = system: VCR-resistant P388 leukemia cells; assay: Antitumor enhancement effects in mice inoculated with VCR-resistant P388 leukemia cells; assay type: in vivo, CDF1 female mice; details: i.p., 10 days
[8] = system: B16 melanoma cells B16 mix; assay: Antitumor enhancement effect in solid tumor cells, B16 mix; assay type: cell-based; details: on VCR, diltiazem 0 μM
[9] = system: K562; assay: Growth inhibition of K562 leukemia cells; assay type: cell-based, human; details: for IC50: Homo sapiens, K562, VCR; for Enhancement effect: on VCR
[10] = system: P388 leukemia cells; assay: Growth inhibition of non-resistant P388 leukemia cells; assay type: cell-based; details: for IC50: Mus musculus
[11] = system: Colon 26 tumor cells KL-2; assay: Antitumor enhancement effect in solid tumor cells, colon 26 KL-2; assay type: cell-based; details: on VCR, diltiazem 0 μM
[12] = system: B16 melanoma cells B2; assay: Antitumor enhancement effect in solid tumor cells, B16 B2; assay type: cell-based; details: on VCR, diltiazem 0 μM
[13] = system: B16 melanoma cells F1; assay: Antitumor enhancement effect in solid tumor cells, B16 F1; assay type: cell-based; details: on VCR, diltiazem 0 μM
[14] = system: K562/VCR; assay: Growth inhibition of VCR-resistant K562 leukemia cells (K562/VCR); assay type: cell-based, human; details: for IC50: Homo sapiens, VCR; for Enhancement effect: on VCR
[15] = system: chronic myeloplast
[16] = system: B16 melanoma cells BL-6; assay: Antitumor enhancement effect in solid tumor cells, B16 BL-6; assay type: cell-based; details: on VCR, diltiazem 0 μM
[17] = system: P388 leukemia cells having no resistance or resistance to VCR and ADM and human leukemia cells K562; assay: Antitumor enhancement effects of diltiazem in resistant and non-resistant tumor cells (summary); assay type: cell-based; details: regardless of whether the tumor cells are non-resistant or resistant
From the text: Antitumor enhancement effects of diltiazem in resistant and non-resistant tumor cells: […]

[18] = system: P388/ADM; assay: Growth inhibition of ADM-resistant P388 leukemia cells (P388/ADM); assay type: cell-based; details: for Enhancement effect: on ADM; for IC50: Mus musculus
[19] = system: ADM-resistant P388 leukemia cells; assay: Antitumor enhancement effect in mice inoculated with ADM-resistant P388 leukemia cells; assay type: in vivo, CDF1 female mice; details: diltiazem HCl 125 mg/kg alone, i.p., 10 days
[20] = VCR 30 μg/kg + diltiazem HCl 60 mg/kg
[21] = VCR 30 μg/kg + diltiazem HCl 80 mg/kg
[22] = VCR 30 μg/kg + diltiazem HCl 100 mg/kg
[23] = VCR 30 μg/kg + diltiazem HCl 125 mg/kg
[24] = VCR 100 μg/kg + diltiazem HCl 60 mg/kg
[25] = VCR 100 μg/kg + diltiazem HCl 80 mg/kg
[26] = VCR 100 μg/kg + diltiazem HCl 100 mg/kg
[27] = VCR 100 μg/kg + diltiazem HCl 125 mg/kg
[28] = VCR 200 μg/kg + diltiazem HCl 60 mg/kg
[29] = VCR 200 μg/kg + diltiazem HCl 80 mg/kg
[30] = VCR 200 μg/kg + diltiazem HCl 100 mg/kg
[31] = VCR 200 μg/kg + diltiazem HCl 125 mg/kg
[32] = diltiazem hydrochloride 180 mg per day, 4 days, in addition to vincristine 1 mg/week

## CC[C@]1(O)C[C@H]2CN(CCc3c([nH]c4ccccc34)[C@@](C(=O)OC)(c3cc4c(cc3OC)N(C=O)[C@H]3[C@@](O)(C(=O)OC)[C@H](OC(C)=O)[C@]5(CC)C=CCN6CC[C@]43[C@@H]65)C2)C1 [VCR, vincristine]
[1]
  ratio of IC50 dose (enhancement effect of diltiazem): 1.0
[2]
  ratio of IC50 dose (enhancement effect of diltiazem): 1.0
[3]
  ratio of IC50 dose (enhancement effect of diltiazem): 1.0
[4]; P388, VCR, diltiazem 0 μM, P388/VCR
  IC50: 29.7 ± 2.87 ng/mL (≈ 36 nM)
[4]; P388, VCR, with diltiazem 10 μM, P388/VCR
  IC50: 3.07 ± 0.09 ng/mL (≈ 3.72 nM)
[4]; P388, VCR, with diltiazem 35 μM, P388/VCR
  IC50: 1.03 ± 0.06 ng/mL (≈ 1.25 nM)
[4]; P388, VCR, with diltiazem 100 μM, P388/VCR
  IC50: 0.55 ± 0.17 ng/mL (≈ 0.667 nM)
[4]; P388, read-out: concentration of vincristine showing 50% inhibition of the resistant cells, with diltiazem (hydrochloride) 35 μM or 100 μM
  IC50: ≤ 1 ng/mL
[4]; diltiazem 0 μM, P388/VCR
  Enhancement effect: 1
[5]
  ratio of IC50 dose (enhancement effect of diltiazem): 1.0
[6]
  ratio of IC50 dose (enhancement effect of diltiazem): 1.0
[7]; VCR 30 μg/kg alone
  Survival time: 10.6 ± 2.1 days
  T/C: 93%
  T/V: 100%
[7]; VCR 100 μg/kg alone
  Survival time: 10.8 ± 1.3 days
  T/C: 95%
  T/V: 100%
[7]; VCR 200 μg/kg alone
  Survival time: 12.4 ± 1.0 days
  T/C: 109%
  T/V: 100%
[8]
  ratio of IC50 dose (enhancement effect of diltiazem): 1.0
[9]; diltiazem 0 μM
  IC50: 2.33 ± 0.24 ng/mL (≈ 2.82 nM)
  Enhancement effect: 1
[9]; with diltiazem 10 μM
  IC50: 1.52 ± 0.09 ng/mL (≈ 1.84 nM)
[9]; with diltiazem 35 μM
  IC50: 1 ± 0.17 ng/mL (≈ 1.21 nM)
[9]; with diltiazem 100 μM
  IC50: 0.69 ± 0.1 ng/mL (≈ 0.836 nM)
[10]; P388, VCR, diltiazem 0 μM
  IC50: 1.88 ± 0.13 ng/mL (≈ 2.28 nM)
[10]; P388, VCR, with diltiazem 10 μM
  IC50: 1.43 ± 0.12 ng/mL (≈ 1.73 nM)
[10]; P388, VCR, with diltiazem 35 μM
  IC50: 0.56 ± 0.06 ng/mL (≈ 0.679 nM)
[10]; P388, VCR, with diltiazem 100 μM
  IC50: 0.45 ± 0.02 ng/mL (≈ 0.545 nM)
[10]; on VCR, diltiazem 0 μM
  Enhancement effect: 1
[11]
  ratio of IC50 dose (enhancement effect of diltiazem): 1.0
[12]
  ratio of IC50 dose (enhancement effect of diltiazem): 1.0
[13]
  ratio of IC50 dose (enhancement effect of diltiazem): 1.0
[14]; diltiazem 0 μM
  IC50: 0.2 ± 0.0163 µg/mL (≈ 242 nM)
  Enhancement effect: 1
[14]; with diltiazem 10 μM
  IC50: 0.023 ± 0.00216 µg/mL (≈ 27.9 nM)
[14]; with diltiazem 35 μM
  IC50: 0.0041 ± 0.00036 µg/mL (≈ 4.97 nM)
[14]; with diltiazem 100 μM
  IC50: 0.00257 ± 0.00041 µg/mL (≈ 3.12 nM)
[15]; after third administration of vincristine 1 mg per week
  number of leukocytes and splenoma: the number of leukocytes and the splenoma still increased
[15]; vincristine 1 mg per week and predonisolone 60 mg per day
  number of leukocytes and splenoma: the number of leukocytes and the splenoma were temporarity somewhat recovered
[16]
  ratio of IC50 dose (enhancement effect of diltiazem): 1.0

## COc1ccc([C@@H]2Sc3ccccc3N(CCN(C)C)C(=O)[C@@H]2OC(C)=O)cc1 [Diltiazem, d-3-acetoxy-cis-2,3-dihydro-5-[2-(dimethylamino)ethyl]-2-(p-methoxyphenyl)-1,5-benzothiazepin-4(5H)-one]
[4]; diltiazem 10 μM, P388/VCR
  Enhancement effect: 9.7
[4]; diltiazem 35 μM, P388/VCR
  Enhancement effect: 28.8
[4]; diltiazem 100 μM, P388/VCR
  Enhancement effect: 54.0
[17]
  antitumor activity of the agents (ADM, VCR): the antitumor activity of the agents is enhanced by diltiazem
[9]; diltiazem 10 μM
  Enhancement effect: 1.5
[9]; diltiazem 35 μM
  Enhancement effect: 2.3
[9]; diltiazem 100 μM
  Enhancement effect: 3.4
[18]; diltiazem 10 μM
  Enhancement effect: 4.5
[18]; diltiazem 35 μM
  Enhancement effect: 11.0
[18]; diltiazem 100 μM
  Enhancement effect: 19.3
[10]; on ADM, diltiazem 10 μM
  Enhancement effect: 1.3
[10]; on ADM, diltiazem 35 μM
  Enhancement effect: 1.4
[10]; on ADM, diltiazem 100 μM
  Enhancement effect: 1.7
[10]; on VCR, diltiazem 10 μM
  Enhancement effect: 1.3
[10]; on VCR, diltiazem 35 μM
  Enhancement effect: 3.4
[10]; on VCR, diltiazem 100 μM
  Enhancement effect: 4.2
[14]; diltiazem 10 μM
  Enhancement effect: 8.7
[14]; diltiazem 35 μM
  Enhancement effect: 48.8
[14]; diltiazem 100 μM
  Enhancement effect: 77.8

## COc1cccc2c1C(=O)c1c(O)c3c(c(O)c1C2=O)C[C@@](O)(C(=O)CO)C[C@@H]3O[C@H]1C[C@H](N)[C@H](O)[C@H](C)O1 [ADM, doxorubicin]
[18]; ADM, diltiazem 0 μM
  IC50: 0.592 ± 0.0768 µg/mL (≈ 1090 nM)
[18]; ADM, with diltiazem 10 μM
  IC50: 0.133 ± 0.0184 µg/mL (≈ 245 nM)
[18]; ADM, with diltiazem 35 μM
  IC50: 0.0537 ± 0.0031 µg/mL (≈ 98.8 nM)
[18]; ADM, with diltiazem 100 μM
  IC50: 0.0307 ± 0.0041 µg/mL (≈ 56.5 nM)
[18]; read-out: concentration of doxorubicin showing 50% inhibition of the cells, with diltiazem 100 μM
  IC50: ~0.03 µg/mL (≈ 55.2 nM)
[18]; read-out: dose for showing 50% inhibition of the tumor cells, doxorubicin alone
  IC50: 0.592 µg/mL (≈ 1090 nM)
[18]; diltiazem 0 μM
  Enhancement effect: 1
[10]; P388, ADM, diltiazem 0 μM
  IC50: 10 ± 2.1 ng/mL (≈ 18.4 nM)
[10]; P388, ADM, with diltiazem 10 μM
  IC50: 7.7 ± 3.6 ng/mL (≈ 14.2 nM)
[10]; P388, ADM, with diltiazem 35 μM
  IC50: 6.9 ± 0.7 ng/mL (≈ 12.7 nM)
[10]; P388, ADM, with diltiazem 100 μM
  IC50: 6 ± 0.4 ng/mL (≈ 11 nM)
[10]; on ADM, diltiazem 0 μM
  Enhancement effect: 1

## COc1ccc([C@@H]2Sc3ccccc3N(CCN(C)C)C(=O)[C@@H]2OC(C)=O)cc1 [Diltiazem HCl]
[19]
  Survival time: 13.0 ± 0 days
[7]; [20]
  Survival time: 11.8 ± 1.9 days
  T/V: 111%
[7]; [21]
  Survival time: 13.8 ± 2.3 days
  T/C: 121%
  T/V: 130%
[7]; [22]
  Survival time: 12.2 ± 1.3 days
  T/V: 115%
[7]; [23]
  Survival time: 13.6 ± 1.9 days
  T/C: 119%
  T/V: 125%
[7]; [24]
  Survival time: 13.8 ± 1.7 days
  T/C: 121%
  T/V: 128%
[7]; [25]
  T/C: 126%
  T/V: 133%
[7]; [26]
  T/C: 132%
  T/V: 139%
[7]; [27]
  T/C: 132%
  T/V: 139%
[7]; [28]
  T/C: 130%
  T/V: 119%
[7]; [29]
  T/C: 130%
  T/V: 119%
[7]; [30]
  T/C: 139%
  T/V: 127%
[7]; [31]
  Survival time: 17.0 ± 1.2 days
  T/C: 149%
  T/V: 137%
[7]; diltiazem HCl 100 mg/kg alone
  Survival time: 11.8 ± 0.4 days
[15]; [32]
  both symptoms (leukocytes, splenoma): both symptoms were remarkably improved
  duration of the effect: about two
[15]; human, in vivo
  side effect: no side effect was observed
